Values quoted from earlier work as cited in PMC6627067, “Probing Multi-Target Action of Phlorotannins as New Monoamine Oxidase Inhibitors and Dopaminergic Receptor Modulators with the Potential for Treatment of Neuronal Disorders” (Marine Drugs, 2019).

Legend:
hMAO-B = target: T1, hMAO-B (Homo sapiens, UniProt P27338); parameters: method as in PMID 28251489; settings: cited from earlier work
T1 sequence (P27338 1-520): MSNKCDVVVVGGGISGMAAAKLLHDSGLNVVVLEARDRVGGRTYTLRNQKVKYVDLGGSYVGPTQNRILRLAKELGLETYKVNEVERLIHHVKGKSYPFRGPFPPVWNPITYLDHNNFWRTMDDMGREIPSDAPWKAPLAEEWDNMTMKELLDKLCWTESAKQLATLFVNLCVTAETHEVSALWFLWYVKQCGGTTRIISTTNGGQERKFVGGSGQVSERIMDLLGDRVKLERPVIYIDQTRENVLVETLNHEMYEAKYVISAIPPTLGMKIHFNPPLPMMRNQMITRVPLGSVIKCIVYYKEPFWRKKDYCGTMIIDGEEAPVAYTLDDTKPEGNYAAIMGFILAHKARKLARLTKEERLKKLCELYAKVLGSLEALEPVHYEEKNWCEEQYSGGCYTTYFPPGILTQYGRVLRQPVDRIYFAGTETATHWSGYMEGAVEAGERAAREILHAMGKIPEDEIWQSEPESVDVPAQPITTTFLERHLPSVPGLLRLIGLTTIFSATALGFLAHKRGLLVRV

hNK1 (TACR1) = hNK1 (TACR1) (Homo sapiens, UniProt P25103); settings: previous GPCR cell-based study; cited from earlier work
hNK1 (TACR1), sequence (P25103 whole entry): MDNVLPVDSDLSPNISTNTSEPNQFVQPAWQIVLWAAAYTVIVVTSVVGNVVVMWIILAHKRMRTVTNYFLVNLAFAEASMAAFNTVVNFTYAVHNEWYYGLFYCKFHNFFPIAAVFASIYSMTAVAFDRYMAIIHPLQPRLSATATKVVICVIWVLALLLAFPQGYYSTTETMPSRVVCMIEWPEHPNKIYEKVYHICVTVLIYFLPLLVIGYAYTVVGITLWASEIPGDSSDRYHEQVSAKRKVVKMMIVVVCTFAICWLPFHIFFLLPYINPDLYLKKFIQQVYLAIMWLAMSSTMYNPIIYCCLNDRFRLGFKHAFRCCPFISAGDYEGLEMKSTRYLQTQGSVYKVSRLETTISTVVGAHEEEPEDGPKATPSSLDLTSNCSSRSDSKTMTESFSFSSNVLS

hV1A (AVPR1A) = hV1A (AVPR1A) (Homo sapiens, UniProt P37288); settings: previous GPCR cell-based study; cited from earlier work
hV1A (AVPR1A), sequence (P37288 whole entry): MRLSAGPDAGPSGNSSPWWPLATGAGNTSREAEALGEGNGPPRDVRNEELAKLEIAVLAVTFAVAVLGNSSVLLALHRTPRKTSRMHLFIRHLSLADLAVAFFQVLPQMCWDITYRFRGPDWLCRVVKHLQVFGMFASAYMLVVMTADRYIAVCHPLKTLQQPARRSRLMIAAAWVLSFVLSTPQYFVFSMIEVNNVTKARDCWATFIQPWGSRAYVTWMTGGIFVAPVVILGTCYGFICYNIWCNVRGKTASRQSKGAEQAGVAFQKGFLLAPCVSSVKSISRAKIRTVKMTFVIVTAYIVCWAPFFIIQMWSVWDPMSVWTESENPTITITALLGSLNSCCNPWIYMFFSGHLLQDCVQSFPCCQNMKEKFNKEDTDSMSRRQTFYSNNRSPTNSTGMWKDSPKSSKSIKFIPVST

hD4 (DRD4) = target: T2, hD4 (DRD4) (Homo sapiens, UniProt P21917); parameters: host or cells: CHO cells; settings: previous GPCR cell-based study; cited from earlier work
T2 sequence (P21917 1-419): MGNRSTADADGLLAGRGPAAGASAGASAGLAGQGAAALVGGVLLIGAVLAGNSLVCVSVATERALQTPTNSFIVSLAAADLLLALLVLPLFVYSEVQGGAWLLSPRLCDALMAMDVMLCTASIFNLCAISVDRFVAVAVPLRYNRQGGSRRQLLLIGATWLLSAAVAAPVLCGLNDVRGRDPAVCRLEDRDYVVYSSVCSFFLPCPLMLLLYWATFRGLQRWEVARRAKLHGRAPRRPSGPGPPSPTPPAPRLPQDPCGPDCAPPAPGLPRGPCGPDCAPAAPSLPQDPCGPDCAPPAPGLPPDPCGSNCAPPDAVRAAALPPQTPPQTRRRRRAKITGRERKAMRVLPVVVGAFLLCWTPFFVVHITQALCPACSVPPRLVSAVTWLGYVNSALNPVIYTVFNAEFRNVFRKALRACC

hMAO-A = target: T3, hMAO-A (Homo sapiens, UniProt P21397); parameters: method as in PMID 28251489; settings: cited from earlier work
T3 sequence (P21397 1-527): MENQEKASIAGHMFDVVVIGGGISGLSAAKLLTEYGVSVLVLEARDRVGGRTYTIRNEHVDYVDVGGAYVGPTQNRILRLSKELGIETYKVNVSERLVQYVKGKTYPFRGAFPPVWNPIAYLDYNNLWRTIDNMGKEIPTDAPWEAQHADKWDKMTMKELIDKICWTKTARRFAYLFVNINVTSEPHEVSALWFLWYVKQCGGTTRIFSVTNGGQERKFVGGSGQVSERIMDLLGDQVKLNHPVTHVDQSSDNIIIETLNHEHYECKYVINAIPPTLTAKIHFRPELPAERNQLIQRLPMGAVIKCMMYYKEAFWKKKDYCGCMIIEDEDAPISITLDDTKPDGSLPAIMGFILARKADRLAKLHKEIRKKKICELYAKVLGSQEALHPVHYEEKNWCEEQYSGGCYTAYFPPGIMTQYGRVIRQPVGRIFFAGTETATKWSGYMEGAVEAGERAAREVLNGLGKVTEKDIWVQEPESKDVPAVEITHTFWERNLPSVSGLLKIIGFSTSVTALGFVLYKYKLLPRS

hM5 (CHRM5) = target: T4, hM5 (CHRM5) (Homo sapiens, UniProt P08912); settings: previous GPCR cell-based study; cited from earlier work
T4 sequence (P08912 1-532): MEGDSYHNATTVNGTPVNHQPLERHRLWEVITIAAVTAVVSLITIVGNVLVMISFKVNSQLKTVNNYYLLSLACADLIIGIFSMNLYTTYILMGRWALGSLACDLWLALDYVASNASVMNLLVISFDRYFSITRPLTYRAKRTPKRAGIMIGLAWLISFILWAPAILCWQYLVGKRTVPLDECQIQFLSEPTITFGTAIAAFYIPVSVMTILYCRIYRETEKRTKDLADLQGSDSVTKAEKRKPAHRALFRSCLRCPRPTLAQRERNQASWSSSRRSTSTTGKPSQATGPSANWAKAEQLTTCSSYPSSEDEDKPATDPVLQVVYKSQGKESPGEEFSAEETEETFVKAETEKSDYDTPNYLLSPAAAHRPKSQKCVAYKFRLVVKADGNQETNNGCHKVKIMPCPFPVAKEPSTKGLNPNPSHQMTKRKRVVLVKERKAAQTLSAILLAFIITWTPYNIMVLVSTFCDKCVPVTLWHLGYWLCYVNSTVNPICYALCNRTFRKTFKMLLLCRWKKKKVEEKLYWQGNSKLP

h5-HT1A (HTR1A) = target: T5, h5-HT1A (HTR1A) (Homo sapiens, UniProt P08908); settings: previous GPCR cell-based study; cited from earlier work
T5 sequence (P08908 1-422): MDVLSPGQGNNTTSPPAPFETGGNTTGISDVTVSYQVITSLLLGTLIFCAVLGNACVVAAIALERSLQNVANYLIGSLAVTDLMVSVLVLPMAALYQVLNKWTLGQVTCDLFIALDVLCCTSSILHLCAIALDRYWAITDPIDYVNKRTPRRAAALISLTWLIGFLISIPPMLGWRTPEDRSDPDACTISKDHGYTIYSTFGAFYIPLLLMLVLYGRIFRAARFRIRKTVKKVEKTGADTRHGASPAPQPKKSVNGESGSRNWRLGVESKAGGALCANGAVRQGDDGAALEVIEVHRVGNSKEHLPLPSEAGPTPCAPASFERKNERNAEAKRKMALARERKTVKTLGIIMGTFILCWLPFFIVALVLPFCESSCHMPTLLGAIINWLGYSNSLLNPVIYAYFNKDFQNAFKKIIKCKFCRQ

hD1 (DRD1) = hD1 (DRD1) (Homo sapiens, UniProt P21728); parameters: host or cells: CHO cells; settings: previous GPCR cell-based study; cited from earlier work
hD1 (DRD1), sequence (P21728 whole entry): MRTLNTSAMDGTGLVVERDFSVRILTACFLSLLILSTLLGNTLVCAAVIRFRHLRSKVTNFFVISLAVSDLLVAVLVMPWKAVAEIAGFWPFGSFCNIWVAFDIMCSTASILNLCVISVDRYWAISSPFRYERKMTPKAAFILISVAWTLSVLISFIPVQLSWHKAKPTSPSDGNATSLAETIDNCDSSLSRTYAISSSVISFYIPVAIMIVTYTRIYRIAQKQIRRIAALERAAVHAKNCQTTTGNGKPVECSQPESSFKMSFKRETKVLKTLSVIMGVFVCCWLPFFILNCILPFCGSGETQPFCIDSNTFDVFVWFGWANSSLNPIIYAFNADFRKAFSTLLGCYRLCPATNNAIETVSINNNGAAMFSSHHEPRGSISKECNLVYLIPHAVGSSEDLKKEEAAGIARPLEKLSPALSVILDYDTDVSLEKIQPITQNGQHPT

hD3 (DRD3) = hD3 (DRD3) (Homo sapiens, UniProt P35462); parameters: host or cells: CHO cells; settings: previous GPCR cell-based study; cited from earlier work
hD3 (DRD3), sequence (P35462 whole entry): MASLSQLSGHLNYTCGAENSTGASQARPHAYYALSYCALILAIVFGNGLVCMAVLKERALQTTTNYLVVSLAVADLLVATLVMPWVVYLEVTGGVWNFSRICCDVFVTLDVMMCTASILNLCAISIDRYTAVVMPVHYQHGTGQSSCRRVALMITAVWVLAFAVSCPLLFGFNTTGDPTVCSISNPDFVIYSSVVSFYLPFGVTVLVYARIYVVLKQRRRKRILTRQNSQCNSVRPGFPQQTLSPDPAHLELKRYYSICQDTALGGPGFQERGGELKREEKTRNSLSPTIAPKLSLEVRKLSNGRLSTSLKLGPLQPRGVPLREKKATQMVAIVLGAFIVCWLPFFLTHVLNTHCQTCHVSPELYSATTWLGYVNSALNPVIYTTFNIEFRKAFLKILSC

For `Oc1cc(O)cc(Oc2c(O)cc(O)c3c2Oc2c(O)cc(O)cc2O3)c1` [Eckol, eckol], the Ki (hMAO-B) is given as 163 µM, the IC50 (hMAO-B; recombinant hMAO-B, obtained from the literature) is given as 83.4 ± 1.48 µM and the “Effect on NK1 receptor” value (hNK1 (TACR1)) is given as “null effects”. For the same compound, the “Effect on V1A receptor” value (hV1A (AVPR1A)) was “null effects”, the “Effect on hD4R” value (hD4 (DRD4)) was “agonist” and the “Inhibition type hMAO-A” value (hMAO-A; NC = noncompetitive, Mixed = mixed type) was “Mixed”. For the same compound, the Ki (hMAO-A) was 20.3 µM, the “SI (selective index)” value (hMAO-A; ratio of hMAO-A IC50/hMAO-B IC50) was 0.09 and the IC50 (hMAO-A; recombinant hMAO-A, obtained from the literature) was 7.2 ± 0.71 µM. For the same compound, the “Effect on M5 receptor” value (hM5 (CHRM5)) was “null effects”, the “Effect on 5HT1A receptor” value (h5-HT1A (HTR1A)) was “null effects” and the “Effect on D1R” value (hD1 (DRD1)) was “null effects”. For the same compound, the “Effect on hD3R” value (hD3 (DRD3)) was “agonist”.
